Tests used:
[1] = test system: EKVX; assay: Growth inhibition of human EKVX cells assessed as cell growth at 10 uM incubated for 48 hrs by sulforhodamine B assay relative to control; format: functional; conditions: read-out: Activity
[2] = Growth inhibition of human HCT15 cells incubated for 48 hrs by sulforhodamine B assay; format: functional; conditions: HCT-15, 48 h
[3] = test system: KM12; assay: Growth inhibition of human KM12 cells incubated for 48 hrs by sulforhodamine B assay; format: functional; conditions: KM12, 48 h
[4] = Growth inhibition of human SW620 cells incubated for 48 hrs by sulforhodamine B assay; format: functional; conditions: SW-620, 48 h
[5] = Growth inhibition of human SF268 cells incubated for 48 hrs by sulforhodamine B assay; format: functional; conditions: SF-268, 48 h
[6] = Growth inhibition of human SF295 cells incubated for 48 hrs by sulforhodamine B assay; format: functional; conditions: SF-295, 48 h
[7] = test system: U-251; assay: Growth inhibition of human U251 cells incubated for 48 hrs by sulforhodamine B assay; format: functional; conditions: U-251, 48 h
[8] = test system: MDA-MB-435; assay: Growth inhibition of human MDA-MB-435 cells incubated for 48 hrs by sulforhodamine B assay; format: functional; conditions: MDA-MB-435, 48 h
[9] = test system: SK-MEL-2; assay: Growth inhibition of human SK-MEL-2 cells incubated for 48 hrs by sulforhodamine B assay; format: functional; conditions: SK-MEL-2, 48 h
[10] = test system: SK-MEL-5; assay: Growth inhibition of human SK-MEL-5 cells incubated for 48 hrs by sulforhodamine B assay; format: functional; conditions: SK-MEL-5, 48 h
[11] = Growth inhibition of human OVCAR3 cells incubated for 48 hrs by sulforhodamine B assay; format: functional; conditions: OVCAR-3, 48 h
[12] = Growth inhibition of human OVCAR4 cells incubated for 48 hrs by sulforhodamine B assay; format: functional; conditions: OVCAR-4, 48 h
[13] = Growth inhibition of human SKOV3 cells incubated for 48 hrs by sulforhodamine B assay; format: functional; conditions: SK-OV-3, 48 h
[14] = test system: ACHN; assay: Growth inhibition of human ACHN cells incubated for 48 hrs by sulforhodamine B assay; format: functional
[15] = Growth inhibition of human UO31 cells incubated for 48 hrs by sulforhodamine B assay; format: functional; conditions: UO-31, 48 h
[16] = test system: MDA-MB-231; assay: Growth inhibition of human MDA-MB-231/ATCC cells incubated for 48 hrs by sulforhodamine B assay; format: functional; conditions: MDA-MB-231, 48 h
[17] = Growth inhibition of human Hs 578T cells incubated for 48 hrs by sulforhodamine B assay; format: functional
[18] = test system: T47D; assay: Growth inhibition of human T47D cells incubated for 48 hrs by sulforhodamine B assay; format: functional
[19] = Selectivity ratio of IC50 for human GM00637 cells to IC50 for human DU145 cells; format: ADME, cell-based; conditions: GM00637 cells versus DU145 cells, read-out: Ratio IC50
[20] = Uncompetitive inhibition of rat liver thioredoxin reductase using DTNB as substrate measured for 50 mins at 5 mins intervals in presence of NADPH by Lineweaver-Burk plot analysis
[21] = test system: CCRF-CEM; assay: Growth inhibition of human CCRF-CEM cells incubated for 48 hrs by sulforhodamine B assay; format: functional
[22] = test system: K562; assay: Growth inhibition of human K562 cells incubated for 48 hrs by sulforhodamine B assay; format: functional; conditions: K562, 48 h
[23] = Growth inhibition of human MOLT4 cells incubated for 48 hrs by sulforhodamine B assay; format: functional; conditions: MOLT-4, 48 h
[24] = Growth inhibition of human HOP92 cells incubated for 48 hrs by sulforhodamine B assay; format: functional; conditions: HOP-92, 48 h
[25] = test system: NCI-H322M; assay: Growth inhibition of human NCI-H322M cells incubated for 48 hrs by sulforhodamine B assay; format: functional
[26] = Mixed-type inhibition of rat liver thioredoxin reductase using DTNB as substrate measured for 50 mins at 5 mins intervals in presence of NADPH by Lineweaver-Burk plot analysis
[27] = read-out: pLC50 (the source's name) (converted)

Molecule `O=c1ccc2nc(C(F)(F)F)nn(-c3ccccc3)c-2c1` has a growth at 10 µM [1] of 95.8%, a GI50 [2] of 2.29 µM and a CC50 [2, 27] of 8.13 µM. It also gave a TGI ([2]; read-out: pTGI (converted)) of 3.39 µM, a GI50 [3] of 19.5 µM and a CC50 [3, 27] of 70.8 µM. The TGI ([3]; read-out: pTGI (converted)) was 37.2 µM, the GI50 [4] was 1.74 µM and the CC50 [4, 27] was 7.94 µM. For the same molecule, the TGI ([4]; read-out: pTGI (converted)) was 3.72 µM, the GI50 [5] was 15.1 µM and the CC50 [5, 27] was 56.2 µM. For the same molecule, the TGI ([5]; read-out: pTGI (converted)) was 28.8 µM, the GI50 [6] was 22.9 µM and the CC50 [6, 27] was > 100 µM. The TGI ([6]; read-out: pTGI (converted)) was 67.6 µM, the GI50 [7] was 13.5 µM and the CC50 [7, 27] was 60.3 µM. For the same molecule, the TGI ([7]; read-out: pTGI (converted)) was 28.8 µM, the GI50 [8] was 4.57 µM and the CC50 [8, 27] was 40.7 µM. It also gave a TGI ([8]; read-out: pTGI (converted)) of 16.6 µM, a GI50 [9] of 3.63 µM and a CC50 [9, 27] of 58.9 µM. For the same molecule, the TGI ([9]; read-out: pTGI (converted)) was 15.5 µM, the GI50 [10] was 7.76 µM and the CC50 [10, 27] was 47.9 µM. It also gave a TGI ([10]; read-out: pTGI (converted)) of 20.9 µM, a GI50 [11] of 1.58 µM and a CC50 [11, 27] of 5.5 µM. For the same molecule, the TGI ([11]; read-out: pTGI (converted)) was 2.95 µM, the GI50 [12] was 1.48 µM and the CC50 [12, 27] was 5.37 µM. For the same molecule, the TGI ([12]; read-out: pTGI (converted)) was 2.82 µM, the GI50 [13] was 15.1 µM and the CC50 [13, 27] was > 100 µM. The TGI ([13]; read-out: pTGI) was > 100 µM, the GI50 [14] was 1.17 µM and the CC50 [14, 27] was 5.13 µM. For the same molecule, the TGI ([14]; read-out: pTGI (converted)) was 2.45 µM, the GI50 [15] was 1.48 µM and the CC50 [15, 27] was 5.62 µM. It also gave a TGI ([15]; read-out: pTGI (converted)) of 2.88 µM, a GI50 [16] of 1.91 µM and a CC50 [16, 27] of 26.9 µM. The TGI ([16]; read-out: pTGI (converted)) was 5.62 µM, the GI50 [17] was 12.3 µM and the CC50 [17, 27] was > 100 µM. For the same molecule, the TGI ([17]; read-out: pTGI (converted)) was 81.3 µM, the GI50 [18] was 1.7 µM and the CC50 [18, 27] was > 100 µM. The TGI ([18]; read-out: pTGI (converted)) was 6.61 µM, the selectivity ratio [19] was 2 and the Ki [20] was 0.78 µM. For the same molecule, the GI50 [21] was 2.34 µM, the CC50 [21, 27] was > 100 µM and the GI50 [22] was 2.09 µM. The CC50 [22, 27] was > 100 µM, the GI50 [23] was 2.14 µM and the CC50 [23, 27] was > 100 µM. It also gave a TGI ([23]; read-out: pTGI (converted)) of 9.12 µM, a GI50 [24] of 1.38 µM and a CC50 [24, 27] of 6.17 µM. It also gave a TGI ([24]; read-out: pTGI (converted)) of 2.95 µM, a GI50 [25] of 18.6 µM and a CC50 [25, 27] of 61.7 µM. The TGI ([25]; read-out: pTGI (converted)) was 33.9 µM.

For `O=c1ccc2nc(-c3ccccc3)nn(-c3ccccc3)c-2c1`, the Ki [26] was 3.9 µM.
